Structures are written as SMILES.

One may read the melting point as the temperature, or range, at which the solid turns liquid. In turn, `CSCCCCCn1c(C)nc2c(N)nc(C)c(C)c21` [Example 12, 2,6,7-Trimethyl-1-[5-(methylthio)pentyl]-1H-imidazo[4,5-c]pyridin-4-amine] came in with a melting point of 121 to 122 °C. As to `Cc1nc(N)c2nc(C)n(CCOCC#Cc3ccccc3)c2c1C` [Example 7, 2,6,7-Trimethyl-1-{2-[(3-phenylprop-2-ynyl)oxy]ethyl}-1H-imidazo[4,5-c]pyridin-4-amine], the melting point was in the range of 186.8 to 187.5 °C. The figure for `CCCc1nc2c(N)nc(C)c(C)c2n1CCCCCS(=O)(=O)c1ccc(F)cc1` [Example 92, 1-[5-(4-Fluorobenzenesulfonyl)pentyl]-6,7-dimethyl-2-propyl-1H-imidazo[4,5-c]pyridin-4-amine] is 130 to 132 °C; for `CCc1nc2c(N)nc(C)c(C)c2n1CCOCCNC(=O)NC(=O)c1ccccc1` [Example 107, N-{2-[2-(4-Amino-2-ethyl-6,7-dimethyl-1H-imidazo[4,5-c]pyridin-1-yl)ethoxy]ethyl}-N′-benzoylurea] it is 185 to 187 °C. The figure for `CCCc1nc2c(N)nc(C)c(C)c2n1CCCCCS(=O)(=O)c1ccc(C(F)(F)F)cc1` is 172 to 173.5 °C. Next, `CCCc1nc2c(N)nc(C)c(C)c2n1CCCCCS(=O)(=O)c1ccc(F)cc1F` [Example 93, 1-[5-(2,4-Difluorobenzenesulfonyl)pentyl]-6,7-dimethyl-2-propyl-1H-imidazo[4,5-c]pyridin-4-amine]: 130 to 132 °C.

The compound `CCc1nc2c(N)nc(C)c(C)c2n1CCOCCN1CCCC1=O` [Example 124, 1-{2-[2-(4-Amino-2-ethyl-6,7-dimethyl-1H-imidazo[4,5-c]pyridin-1-yl)ethoxy]ethyl}pyrrolindin-2-one] yielded a melting point of 128 to 130 °C.

In the case of `CCOCc1nc2c(N)nc(C)c(C)c2n1CCOCc1ccccc1` [Example 4, 1-[2-(Benzyloxy)ethyl]-2-(ethoxymethyl)-6,7-dimethyl-1H-imidazo[4,5-c]pyridin-4-amine], the melting point is 107.3 to 108.2 °C. The figure for `CCCc1nc2c(N)nc(C)c(C)c2n1CCCS(=O)(=O)c1ccc(C(=O)OCC)cc1` [Example 99, 4-[3-(4-Amino-6,7-dimethyl-2-propyl-1H-imidazo[4,5-c]pyridin-1-yl)propane-1-sulfonyl]benzoic acid ethyl ester] is 169 to 171 °C. Compound `CCCc1nc2c(N)nc(C)c(C)c2n1CCCCCS(=O)(=O)c1ccc(OC)cc1` gave a melting point of 130.5 to 132 °C.

The compound `CCCc1nc2c(N)nc(C)c(C)c2n1CCCCCS(=O)(=O)c1ccc(Cl)cc1` [Example 85, 1-[5-(4-Chlorobenzenesulfonyl)pentyl]-6,7-dimethyl-2-propyl-1H-imidazo[4,5-c]pyridin-4-amine] yielded a melting point of 147 to 149 °C. `Cc1nc(N)c2nc(C)n(CCOCCCc3ccccc3)c2c1C` [Example 8, 2,6,7-Trimethyl-1-[2-(3-phenylpropoxy)ethyl]-1H-imidazo[4,5-c]pyridin-4-amine] showed a melting point of 118.1 to 119 °C. Take `CCCc1nc2c(N)nc(C)c(C)c2n1CCCCS(C)(=O)=O` [Example 89, 1-[4-(Methanesulfonyl)butyl]-6,7-dimethyl-2-propyl-1H-imidazo[4,5-c]pyridin-4-amine]: the melting point fell in the range of 152 to 153 °C.

Turning to `CCc1nc2c(N)nc(C)c(C)c2n1CCOCCNC(=O)NC1CCCCC1` [Example 105], the melting point was in the range of 187 to 189 °C. Next, `Cc1nc(N)c2nc(C)n(CCCCCSc3ccccc3)c2c1C` [Example 13, 2,6,7-Trimethyl-1-[5-(phenylthio)pentyl]-1H-imidazo[4,5-c]pyridin-4-amine]: 181 to 183 °C.

`CCOCc1nc2c(N)nc(C)c(C)c2n1CCOCCCc1cncnc1` [Example 112, 2-(Ethoxymethyl)-6,7-dimethyl-1-[2-(3-pyrimidin-5-ylpropoxy)ethyl]-1H-imidazo[4,5-c]pyridin-4-amine] registered a melting point of 127 to 129 °C. Next, `Cc1nc(N)c2nc(C)n(CCOC/C=C/c3ccccc3)c2c1C` [Example 9, 2,6,7-Trimethyl-1-(2-{[(2E)-3-phenylprop-2-enyl]oxy}ethyl)-1H-imidazo[4,5-c]pyridin-4-amine]: 143.7 to 144.8 °C; `Cc1nc(N)c2nc(C)n(CCOCCCc3cccnc3)c2c1C` [Example 10, 2,6,7-Trimethyl-1-[2-(3-pyridin-3-ylpropoxy)ethyl]-1H-imidazo[4,5-c]pyridin-4-amine]: 108.6 to 109.5 °C; `CCc1nc2c(N)nc(C)c(C)c2n1CCOCCNC(=O)C1CCCCC1` [Example 104, N-{2-[2-(4-Amino-2-ethyl-6,7-dimethyl-1H-imidazo[4,5-c]pyridin-1-yl)ethoxy]ethyl}cyclohexanecarboxamide]: 170 to 172 °C.
